Experiment [1] deals with RKO (RKOp27) human colon adenocarcinoma cells. The experiment in a line: Alamar Blue cell viability assay, anti-proliferative/cytotoxic activity on proliferating RKOp27 cells. In kind it is cell-based. Particulars: no Ponasterone A, 72 hours incubation, read-out: IC50 RKO p27 uninduced (proliferating). The protocol: The anti-proliferative I cytotoxic activity of the compounds described herein, can be tested on subclones of RKO (RKOp27) human colon adenocarcinoma cells (Schmidt et al., Oncogene 19, 2423-2429; 2000) using the Alamar Blue cell viability assay (described in O'Brien et al. Eur J Biochem 267, 5421-5426, 2000). The compounds are dissolved as 20 mM solutions in dimethylsulfoxide (DMSO) and subsequently diluted in semi-logarithmic steps. DMSO dilutions are further diluted 1:100 into Dulbecco's modified Eagle's medium (DMEM) containing 10% fetal calf serum to a final concentration twice as much as the final concentration in the test. RKO subclones are seeded into 96 well flat bottom plates at a density of 5000 cells per well in a volume of 50 μl per well. 24 hours after seeding the 50 μl each of the compound dilutions in DMEM medium are added into each well of the 96 Well plate. Each compound dilution is tested as quadruplicates. Wells containing untreated control cells are filled with 50 μl DMEM medium containing 1% DMSO. The cells are then incubated with the substances for 72 hours at 37° C. in a hunified atmosphere containing 5% carbon dioxide. To determine the viability of the cells, 10 μl of an Alamar Blue solution (Biosource) are added and the fluorescence is measured at an extinction of 544 nm and an emission of 590 nm. For the calculation of the cell viability the emission value from untreated cells is set as 100% viability and the emission rates of treated cells are set in relation to the values of untreated cells. Viabilities are expressed as % values.
The corresponding IC50 values of the compounds for anti-proliferative/cytotoxic activity are determined from the concentration-effect curves.
Representative IC50 values for anti-proliferation/cytotoxicity determined in the mentioned assay follow from the following table A, in which the numbers of the compounds correspond to the numbers of the examples.
A general note: Alamar Blue is a resazurin reagent that responds to reducing activity.

Experiment [2] has as its system RKO colon adenocarcinoma cells (RKOp27) arrested by ectopic p27Kip1. The experiment in a line: Alamar Blue cell viability assay on RKOp27 cells arrested by p27Kip1 expression induced with Ponasterone A (cell cycle specific mode of action). Particulars: Homo sapiens, RKOp27 cells arrested by p27Kip1 induced with 10 μM Ponasterone A, 72 hours incubation, read-out: IC50 RKO p27 induced (arrested). In kind it is cell-based. The protocol:
To determine the cell cycle specific mode of action, subclones of RKO colon adenocarcinoma cells (RKOp27 or RKOp21 as described by Schmidt et al. in Oncogene 19, 2423-2429; 2000) are seeded into 96 well flat bottom plates at a density of 15000 cells per well in a volume of 50 μl per well in DMEM growth medium with 10% FCS containing 10 μM Ponasterone A. 24 hours after seeding the 50 μl each of the compound dilutions in DMEM medium are added into each well of the 96 Well plate. Each compound dilution is tested as quadruplicates. Wells containing untreated control cells are filled with 50 μl DMEM medium containing 1% DMSO. The cells are then incubated with the substances for 72 hours at 37° C. in a humidified atmosphere containing 5% carbon dioxide. To determine the viability of the cells, 10 μl of an Alamar Blue solution (Biosource) are added and the fluorescence was measured at an extinction of 544 nm and an emission of 590 nm. For the calculation of the cell viability the emission value from untreated cells is set as 100% viability and the emission rates of treated cells are set in relation to the values of untreated cells. Viabilities are expressed as % values. Viability is compared of proliferating cells grown in the absence of the inducer Ponasterone A, versus viability of cells arrested by the expression of ectopic p27Kip1 induced by Ponasterone A.

By IC50 is commonly meant the concentration needed to halve the response being measured. As to `CC(CC(=O)Nc1sc2c(c1C#N)CCN(C(=O)Cc1ccccn1)C2)c1ccccc1` (racemic) [Example 22, (RS)—N-[3-Cyano-6-(2-pyridin-2-yl-ethanoyl)-4,5,6,7-tetrahydro-thieno[2,3-c]pyridin-2-yl]-3-phenyl-butyramide], the IC50 in experiment [1] was at most 0.3 µM; in experiment [2], over 100 µM.

For the molecule `CC(CC(=O)Nc1sc2c(c1C#N)CCN(C(=O)Cc1cccnc1)C2)c1ccccc1` (racemic) [Example 23, (RS)—N-[3-Cyano-6-(2-pyridin-3-yl-ethanoyl)-4,5,6,7-tetrahydro-thieno[2,3-c]pyridin-2-yl]-3-phenyl-butyramide], the figures for the IC50 in experiment [1] and in experiment [2] were at most 0.3 µM and over 100 µM, respectively.

As for `CC(CC(=O)Nc1sc2c(c1C#N)CCN(C(=O)Cc1ccncc1)C2)c1ccccc1` (racemic) [Example 24, (RS)—N-[3-Cyano-6-(2-pyridin-4-yl-ethanoyl)-4,5,6,7-tetrahydro-thieno[2,3-c]pyridin-2-yl]-3-phenyl-butyramide], the IC50 in experiment [1] was at most 0.3 µM; in experiment [2], over 100 µM.

As for `CC(CC(=O)Nc1sc2c(c1C#N)CCN(C(=O)CCc1cccnc1)C2)c1ccccc1` (racemic) [Example 25, (RS)—N-[3-Cyano-6-(3-pyridin-3-yl-propanoyl)-4,5,6,7-tetrahydro-thieno[2,3-c]pyridin-2-yl]-3-phenyl-butyramide], the 50% inhibitory concentration (IC50) in experiment [1] is 0.3 to 2 µM; in experiment [2] it was over 100 µM.

With `CC(CC(=O)Nc1sc2c(c1C#N)CCN(C(=O)Cn1ccnc1)C2)c1ccccc1` (racemic) [Example 26], the IC50 in experiment [1] is 0.3 to 2 µM; in experiment [2], over 100 µM.

With `CCCC(=O)N1CCc2c(sc(NC(=O)CC(C)c3ccccc3)c2C#N)C1` (racemic) [Example 27, (RS)—N-(6-Butyryl-3-cyano-4,5,6,7-tetrahydro-thieno[2,3-c]pyridin-2-yl)-3-phenyl-butyramide], the figures for the IC50 in experiment [1] and in experiment [2] were 0.3 to 2 µM and over 100 µM, respectively.

`CC(CC(=O)Nc1sc2c(c1C#N)CCN(C(=O)CCc1ccccn1)C2)c1ccccc1` (racemic) [Example 29, (RS)—N-[3-Cyano-6-(3-pyridin-2-yl-propanoyl)-4,5,6,7-tetrahydro-thieno[2,3-c]pyridin-2-yl]-3-phenyl-butyramide]: the IC50 in experiment [1] is 0.3 to 2 µM; in experiment [2], over 100 µM.

With `CC(CC(=O)Nc1sc2c(c1C#N)CCN(C(=O)CCn1ccnc1)C2)c1ccccc1` (racemic) [Example 31], the half-inhibitory concentration (IC50) was 0.3 to 2 µM in experiment [1] and over 100 µM in experiment [2].

For the molecule `Cc1nccn1CCC(=O)N1CCc2c(sc(NC(=O)CC(C)c3ccccc3)c2C#N)C1` (racemic) [Example 32, (RS)—N-{3-Cyano-6-[3-(2-methyl-imidazol-1-yl)-propanoyl]-4,5,6,7-tetrahydro-thieno[2,3-c]pyridin-2-yl}-3-phenyl-butyramide], the half-maximal inhibitory concentration (IC50) in experiment [1] was 0.3 to 2 µM; in experiment [2], at least 10 µM.

For `CC(CC(=O)Nc1sc2c(c1C#N)CCN(C(=O)CCc1nccn1C)C2)c1ccccc1` (racemic) [Example 34, (RS)—N-{3-Cyano-6-[3-(1-methyl-1H-imidazol-2-yl)-propanoyl]-4,5,6,7-tetrahydro-thieno[2,3-c]pyridin-2-yl}-3-phenyl-butyramide], the IC50 was at most 0.3 µM in experiment [1] and at least 10 µM in experiment [2].

Consider `CC(CC(=O)Nc1sc2c(c1C#N)CCN(C(=O)CCc1ccncc1)C2)c1ccccc1` (racemic) [Example 36, (RS)—N-[3-Cyano-6-(3-pyridin-4-yl-propanoyl)-4,5,6,7-tetrahydro-thieno[2,3-c]pyridin-2-yl]-3-phenyl-butyramide], for which the results for the IC50 in experiment [1] and in experiment [2] were 0.3 to 2 µM and at least 10 µM, respectively.

In the case of `Cc1nccn1CC(=O)N1CCc2c(sc(NC(=O)CC(C)c3ccccc3)c2C#N)C1` (racemic) [Example 37, (RS)—N-{3-Cyano-6-[2-(2-methyl-imidazo-1-yl)-ethanoyl]-4,5,6,7-tetrahydro-thieno[2,3-c]pyridin-2-yl}-3-phenyl-butyramide], the concentration for half-maximal inhibition (IC50) was at most 0.3 µM in experiment [1] and at least 40 µM in experiment [2].

Regarding `Cc1cn(CC(=O)N2CCc3c(sc(NC(=O)CC(C)c4ccccc4)c3C#N)C2)cn1` (racemic) [Example 40, (RS)—N-{3-Cyano-6-[2-(4-methyl-imidazol-yl)-ethanoyl]-4,5,6,7-tetrahydro-thieno[2,3-c]pyridin-2-yl}-3-phenyl-butyramide], the concentration for half-maximal inhibition (IC50) in experiment [1] was 0.3 to 2 µM; in experiment [2], at least 40 µM.

With `Cc1cn(CC(=O)N2CCc3c(sc(NC(=O)CC(C)c4ccccc4)c3C#N)C2)c(C)n1` (racemic) [Example 42, (RS)—N-{3-Cyano-6-[2-(2,4-dimethyl-midazol-1-yl)-ethanoy]-4,5,6,7-tetrahydro-thieno[2,3-c]pyridin-2-yl}-3-phenyl-butyramide], the figures for the IC50 in experiment [1] and in experiment [2] were 0.3 to 2 µM and at least 10 µM, respectively.

Take `N#Cc1c(NC(=O)CCc2ccccc2)sc2c1CCN(C(=O)CCc1cccnc1)C2` [Example 1, N-[3-Cyano-6-(3-pyridn3-yl-propanoyl)-4,5,6,7-tetrahydro-thieno[2,3-c]pyridin-2-yl]-3-phenyl-propionamide]: the IC50 in experiment [1] is 0.3 to 2 µM; in experiment [2], over 100 µM.

As to `N#Cc1c(NC(=O)CCc2ccccc2)sc2c1CCN(C(=O)Cc1cccnc1)C2` [Example 2, N-[3-Cyano-6-(2-pyridin-3-yl-ethanoyl)-4,5,6,7-tetrahydro-thieno[2,3-]pyridin-2-yl]-3-phenyl-propionamide], the 50% inhibitory concentration (IC50) in experiment [1] was at most 0.3 µM; in experiment [2], over 100 µM.

For the molecule `N#Cc1c(NC(=O)CCc2ccccc2)sc2c1CCN(C(=O)Cc1ccccn1)C2` [Example 3, N-[3-Cyano-(2-pyridin-2-yl-ethanoyl)-4,5,6,7-tetrahydro-thieno[2,3-]pyridin-2-yl]-3-phenyl-propionamide], the values for the half-maximal inhibitory concentration (IC50) in experiment [1] and in experiment [2] were at most 0.3 µM and over 100 µM, respectively.

On to `COCC(=O)N1CCc2c(sc(NC(=O)CCc3ccccc3)c2C#N)C1` [Example 4, N-[3-Cyano-6-(2-methoxy-ethanoyl)-4,5,6,7-tetrahydro-thieno[2,3-c]pyridin-2-yl]-3-phenyl-propionamide], for which the figures for the concentration for half-maximal inhibition (IC50) in experiment [1] and in experiment [2] were at most 0.3 µM and over 100 µM, respectively.

As for `COCCOCC(=O)N1CCc2c(sc(NC(=O)CCc3ccccc3)c2C#N)C1` [Example 5], the results for the IC50 in experiment [1] and in experiment [2] were 0.3 to 2 µM and over 100 µM, respectively.

Turning to `CC(=O)OCC(=O)N1CCc2c(sc(NC(=O)CCc3ccccc3)c2C#N)C1` [Example 7, Acetic acid 2-[3-cyano-2-(3-phenyl-propanoylamino)-4,7-dihydro-5H-thieno[2,3-c]pyridin-6-yl]-2-oxo-ethyl ester], the half-maximal inhibitory concentration (IC50) in experiment [1] was at most 0.3 µM; in experiment [2] it was over 100 µM.

For the molecule `COCCOCC(=O)N1CCc2c(sc(NC(=O)CCc3ccco3)c2C#N)C1` [Example 9, N-{3-Cyano-6-[2-(2-methoxy-ethoxy)-ethanoyl]-4,5,6,7-tetrahydro-thieno[2,3-c]pyridin-2-yl}-3-furan-2-yl-propionamide], the IC50 in experiment [1] is at most 0.3 µM; in experiment [2], over 100 µM.

Turning to `N#Cc1c(NC(=O)CCc2ccco2)sc2c1CCN(C(=O)Cc1ccccn1)C2` [Example 10, N-[3-Cyano-6-(2-pyridin-2-yl-ethanoyi)-4,5,6,7-tetrahydro-thieno[2,3-c]pyridin-2-yl]-3-furan-2-yl-propionamide], the IC50 in experiment [1] is at most 0.3 µM; in experiment [2], over 100 µM.

With `N#Cc1c(NC(=O)CCc2ccco2)sc2c1CCN(C(=O)Cc1cccnc1)C2` [Example 11, N-[3-Cyano-6-(2-pyridin-3-yl-ethanoyl)-4,5,6,7-tetrahydro-thieno[2,3-c]pyridin-2-yl]-3-furan-2-yl-propionamide], the IC50 in experiment [1] is at most 0.3 µM; in experiment [2] it was over 100 µM.

As for `N#Cc1c(NC(=O)CCc2ccco2)sc2c1CCN(C(=O)CCc1cccnc1)C2` [Example 12, N-[3-Cyano-4-6-(3-pyridin-3-yl-propanoyl)-4,5,6,7-tetrahydro-thieno[2,3-c]pyridin-2-yl]-3-furan-2-yl-propionamide], the IC50 was at most 0.3 µM in experiment [1] and over 100 µM in experiment [2].

Values taken from patent US20090258873A1, “Novel tetrahydropyridothiophenes” (priority 2005, published 2009).
